Values joined by “and” are separate entries in the source; they are usually repeats but may differ in a detail not shown here. Equal entries are not always repeated. “Also recorded” adds a separate entry of the source. Where two headings read alike, the source gives them in different places.
Key:
[1] = test system: patients with advanced solid tumors; conditions: cited from earlier work
[2] = Plasma pharmacokinetics of pamiparib, single dose and steady state, non-compartmental; format: in vivo, human; conditions: for CL/F / Cmax / AUC(0-t) / AUC(0-inf): geometric mean (geometric CV%); for Cmax / AUC(0-t) / half-life / Tmax / AUC(0-inf): human, plasma; for half-life: geometric mean (range)
Method: Secondary objectives were assessment of PK parameters and antitumor activity. Blood samples for the PK analysis were collected at Cycle 1 on Days 1, 2, and 3. Pharmacokinetic sampling was performed at Cycle 1 on Day 1 (predose and at 0.5, 1, 2, 4, 6, 9, and 12 hours postdose), Day 2, Day 3, and Day 10 (predose and at 0.5, 1, 2, 4, 6, 9, and 12 hours postdose); then at Cycles 2 and 3 on Day 1 (predose and at 2 hours postdose). […] Tumor assessments were performed by the investigators at screening, every 6 weeks after the first dose of pamiparib in the 1st year, and every 12 weeks thereafter until progression, per RECIST v1.1. Patients completed the study at the time of their safety follow‐up visit; therefore, radiological assessment of disease progression was not performed after the safety follow‐up visit. Approximately 14 to 18 evaluable patients were expected to enroll in the phase 1 part of the study. The safety population included all patients who received ≥1 dose of pamiparib. The PK population included all patients for whom valid pamiparib PK parameters could be estimated. Antitumor activity per RECIST v1.1 was assessed in all evaluable patients. […] The population evaluable for CA‐125 response included patients in the safety population with baseline CA‐125 ≥2 x upper limit of normal. Descriptive statistics were used to summarize all study data. Continuous variables included the number of non‐missing observations, mean, standard deviation, median, minimum, and maximum. Categorical variables were summarized by their frequency and percentage. Progression‐free survival was estimated using the Kaplan–Meier method and the corresponding 95% confidence interval (CI) was constructed using Greenwood's formula. Standard PK parameters (i.e., area under the plasma concentration‐time curve [AUC] from time of drug administration; maximum plasma concentration [Cmax]; time to Cmax; elimination half‐life [t1/2]; apparent clearance; and apparent volume of distribution during terminal phase) were estimated and derived using standard non‐compartmental methods.

PARP1/2 = conditions: cited from earlier work
advanced HGOC or TNBC = test: Progression-free survival, total safety population; format: in vivo, human; conditions: Total (N=15)
Method: Secondary objectives were assessment of PK parameters and antitumor activity. Blood samples for the PK analysis were collected at Cycle 1 on Days 1, 2, and 3. Pharmacokinetic sampling was performed at Cycle 1 on Day 1 (predose and at 0.5, 1, 2, 4, 6, 9, and 12 hours postdose), Day 2, Day 3, and Day 10 (predose and at 0.5, 1, 2, 4, 6, 9, and 12 hours postdose); then at Cycles 2 and 3 on Day 1 (predose and at 2 hours postdose). […] Tumor assessments were performed by the investigators at screening, every 6 weeks after the first dose of pamiparib in the 1st year, and every 12 weeks thereafter until progression, per RECIST v1.1. Patients completed the study at the time of their safety follow‐up visit; therefore, radiological assessment of disease progression was not performed after the safety follow‐up visit. Descriptive statistics were used to summarize all study data. Continuous variables included the number of non‐missing observations, mean, standard deviation, median, minimum, and maximum. Categorical variables were summarized by their frequency and percentage. Progression‐free survival was estimated using the Kaplan–Meier method and the corresponding 95% confidence interval (CI) was constructed using Greenwood's formula. Standard PK parameters (i.e., area under the plasma concentration‐time curve [AUC] from time of drug administration; maximum plasma concentration [Cmax]; time to Cmax; elimination half‐life [t1/2]; apparent clearance; and apparent volume of distribution during terminal phase) were estimated and derived using standard non‐compartmental methods.

[3] = test system: high-grade ovarian cancer (HGOC); test: CA-125 response per Gynecologic Cancer Intergroup in patients with HGOC; format: in vivo, human
Method: Among eligible patients with HGOC, carcinoma antigen 125 (CA‐125) response rate per Gynecologic Cancer Intergroup was also assessed. Patients with HGOC had CA‐125 tested in a local laboratory at baseline, every 6 weeks in the 1st year, and then, every 12 weeks thereafter. CA‐125 responses must have been confirmed and maintained for at least 28 days. Germline and tBRCA1/2 mutations were analyzed as predictive biomarkers of antitumor activity and resistance to pamiparib. BRCA mutations were assessed using next‐generation sequencing, performed by BGI Genomics Co., Ltd, using the germline (gBRCA) or somatic (tBRCA) Hereditary Breast and Ovarian Cancer Test. Approximately 14 to 18 evaluable patients were expected to enroll in the phase 1 part of the study. The safety population included all patients who received ≥1 dose of pamiparib. The PK population included all patients for whom valid pamiparib PK parameters could be estimated. Antitumor activity per RECIST v1.1 was assessed in all evaluable patients. […] The population evaluable for CA‐125 response included patients in the safety population with baseline CA‐125 ≥2 x upper limit of normal.

For `C[C@]12CCCN1CC1=NNC(=O)c3cc(F)cc4[nH]c2c1c34` [pamiparib, Pamiparib], the “Recommended phase 2 dose (RP2D)” value ([1]; FIH study NCT02361723, PO) is listed as 60 mg BID, the “Linearity of pamiparib exposure” value ([1]; FIH study NCT02361723) is listed as “linear up to 80 mg BID” and the “Maximum tolerated dose (MTD)” value ([1]; FIH study NCT02361723) is listed as 80 mg BID. For the same molecule, the “Accumulation ratio, AUC0-12” value ([2]; 20 mg BID, n 4) was 2.05, the “Accumulation ratio, Cmax” value ([2]; 20 mg BID, n 4) was 1.78 and the “Accumulation ratio, AUC0-12” value ([2]; 40 mg BID, n 4) was 3.95. For the same molecule, the “Accumulation ratio, Cmax” value ([2]; 40 mg BID, n 4) was 3.19, the “Accumulation ratio, AUC0-12” value ([2]; 60 mg BID, n 5) was 3.4 and 3.36 and the “Accumulation ratio, Cmax” value ([2]; 60 mg BID, n 5) was 2.6 and 2.62. For the same molecule, the CL/F ([2]; Single dose, 20 mg BID cohort, N 4) was 1.95 (44) L/hr, the CL/F ([2]; Single dose, 40 mg BID cohort, N 4) was 2.07 (61) L/hr and the CL/F ([2]; Single dose, 60 mg BID cohort, N 7) was 2.19 (79) L/hr. For the same molecule, the “Dose proportionality of plasma exposure (AUC and Cmax)” value ([2]; between 20 mg and 60 mg BID, after a single dose) was “increased near proportionally; also recorded: near dose‐proportional”, the Cmax ([2]; oral, 20 mg, Single dose, 20 mg BID cohort, N 4, plasma) was 718 ng/mL and the AUC(0-t) ([2]; oral, 20 mg, Single dose, 20 mg BID cohort, N 4, read-out: AUC0-9) was 4130 ng·h/mL. For the same molecule, the AUC(0-t) ([2]; oral, 20 mg, Single dose, 20 mg BID cohort, N 4, read-out: AUC0-12) was 5030 ng·h/mL, the half-life ([2]; oral, 20 mg, Single dose, 20 mg BID cohort, N 4) was 12.1 h and the Tmax ([2]; oral, 20 mg, Single dose, 20 mg BID cohort, N 4, median (range), read-out: Tmax) was 1.01 h. It also gave a Cmax ([2]; oral, 20 mg, Steady state (Cycle 1 Day 10), 20 mg BID, N 4) of 1280 ng/mL, an AUC(0-t) ([2]; oral, 20 mg, Steady state (Cycle 1 Day 10), 20 mg BID, N 4, read-out: AUC0-9) of 8360 ng·h/mL and an AUC(0-t) ([2]; oral, 20 mg, Steady state (Cycle 1 Day 10), 20 mg BID, N 4, read-out: AUC0-12) of 10300 ng·h/mL. The Tmax ([2]; oral, 20 mg, Steady state (Cycle 1 Day 10), 20 mg BID, N 4, median (range), read-out: Tmax) was 1.04 h, the Cmax ([2]; oral, 40 mg, Single dose, 40 mg BID cohort, N 4, plasma) was 1630 ng/mL and the AUC(0-t) ([2]; oral, 40 mg, Single dose, 40 mg BID cohort, N 4, read-out: AUC0-9) was 8560 ng·h/mL. For the same molecule, the AUC(0-t) ([2]; oral, 40 mg, Single dose, 40 mg BID cohort, N 4, read-out: AUC0-12) was 10400 ng·h/mL, the half-life ([2]; oral, 40 mg, Single dose, 40 mg BID cohort, N 4) was 11.8 h and the Tmax ([2]; oral, 40 mg, Single dose, 40 mg BID cohort, N 4, median (range), read-out: Tmax) was 0.98 h. It also gave a Cmax ([2]; oral, 40 mg, Steady state (Cycle 1 Day 10), 40 mg BID, N 4) of 5210 ng/mL, an AUC(0-t) ([2]; oral, 40 mg, Steady state (Cycle 1 Day 10), 40 mg BID, N 4, read-out: AUC0-9) of 32500 ng·h/mL and an AUC(0-t) ([2]; oral, 40 mg, Steady state (Cycle 1 Day 10), 40 mg BID, N 4, read-out: AUC0-12) of 40900 ng·h/mL. The Tmax ([2]; oral, 40 mg, Steady state (Cycle 1 Day 10), 40 mg BID, N 4, median (range), read-out: Tmax) was 1.1 h, the Cmax ([2]; oral, 60 mg, Single dose, 60 mg BID cohort, N 7, plasma) was 2300 ng/mL and the AUC(0-t) ([2]; oral, 60 mg, Single dose, 60 mg BID cohort, N 7, read-out: AUC0-9) was 11900 ng·h/mL. The AUC(0-t) ([2]; oral, 60 mg, Single dose, 60 mg BID cohort, N 7, read-out: AUC0-12) was 14800 ng·h/mL, the half-life ([2]; oral, 60 mg, Single dose, 60 mg BID cohort, N 7) was ~14 h and the Tmax ([2]; oral, 60 mg, Single dose, 60 mg BID cohort, N 7, median (range), read-out: Tmax) was 1.13 h. For the same molecule, the Cmax ([2]; oral, 60 mg, Steady state (Cycle 1 Day 10), 60 mg BID, N 5) was 5860 ng/mL, the AUC(0-t) ([2]; oral, 60 mg, Steady state (Cycle 1 Day 10), 60 mg BID, N 5, read-out: AUC0-9) was 38100 ng·h/mL and the AUC(0-t) ([2]; oral, 60 mg, Steady state (Cycle 1 Day 10), 60 mg BID, N 5, read-out: AUC0-12) was 47100 ng·h/mL. The Tmax ([2]; oral, 60 mg, Steady state (Cycle 1 Day 10), 60 mg BID, N 5, median (range), read-out: Tmax) was 1.13 h, the AUC(0-inf) ([2]; oral, Single dose, 20 mg BID cohort, N 4) was 10200 ng·h/mL and the AUC(0-inf) ([2]; oral, Single dose, 40 mg BID cohort, N 4) was 19300 ng·h/mL. The AUC(0-inf) ([2]; oral, Single dose, 60 mg BID cohort, N 7) was 27500 ng·h/mL, the Tmax ([2]; po, 60 mg, oral administration, RP2D of 60 mg BID, read-out: median Tmax) was ~1 h and the “Plasma exposure after a single dose compared with FIH study” value ([2]; single-dose administration) was “similar”. The “Steady-state exposure compared with FIH study” value ([2]; steady state) was “slightly higher”, the “Potency relative to olaparib (fold more potent)” value (PARP1/2) was 10 fold and the “Event-free rate at 3 months (95% CI)” value (advanced HGOC or TNBC; Kaplan-Meier) was 50.0 (20.85–73.61) %. The “Event-free rate at 6 months (95% CI)” value (advanced HGOC or TNBC; Kaplan-Meier) was 40.0 (13.52–65.73) %, the “Event-free rate at 9 months (95% CI)” value (advanced HGOC or TNBC; Kaplan-Meier) was 40.0 (13.52–65.73) % and the “Median PFS (95% CI)” value (advanced HGOC or TNBC; Kaplan-Meier, NE, not estimable) was 4.2 (1.48–NE) months. For the same molecule, the “PFS Events” value (advanced HGOC or TNBC; safety population) was 7 (46.7) n (%), the “PFS events: Disease progression” value (advanced HGOC or TNBC; safety population) was 7 (46.7) n (%) and the CA-125 response rate ([3]; HGOC (n=8), CA-125-evaluable population) was 2 (25.0) n (%). For the same molecule, the “Time to response (per CA-125 criteria), Median (range)” value ([3]; HGOC, n 2 responders) was 1.45 (1.4–1.5) months.

From paper PMC7826463, “Pamiparib dose escalation in Chinese patients with non‐mucinous high‐grade ovarian cancer or advanced triple‐negative breast cancer” (Cancer Medicine, 2020)
